From patent publication US6368529B1, “Lignocellulosic composite” (U.S. Borax Inc., priority 2000, dated 2002)

Tests used:
[1] = test system: Gloeophyllum trabeum (ATCC 11539); experiment: Soil block decay test (AWPA E10-87), brown rot; type: cell-based
Text: (§1) Wood flakeboard was manufactured by conventional wood processing techniques, incorporating various borates at a range of concentrations, from 0.5 to 2.0% boric acid equivalent (BAE). Boric acid (H3BO3) equivalent is a commonly used convention for comparing various borates on an equivalent contained-boron basis. For each borate/loading combination, fifteen pounds of aspen (Populus tremuloides) furnish having an average particle size of about 2.5×0.75×0.025 inches, was blended with 0.75 pounds (5%) Rubinate 1840 (product of ICI), a polymeric methylene diphenyl diisocyanate adhesive, 0.11 pounds (0.75%) of Cascowax EW 403HS (product of Borden) and various concentrations of nine test borates. For each borate/loading combination, three 18″×18″ composite boards of 0.5 inch thickness were formed by pressing for 210 seconds at (180 seconds pressure, 30 seconds pressure release) at 204.5° C. (the pressure was kept in excess of 6000 psi during the pressure cycle). Each board was trimmed to 15″×15″ and cut to produce internal bond and analytical/soil block specimens for evaluation. Replicates were cut from the inner portion of the boards. Four internal bond, two leaching panels and twenty analytical/soil block specimens were cut from each board.
(§2) The panels to be leached (4.5″×4.5″) were edge sealed with an epoxy sealant and leached for two weeks. Leaching began with pressure treatment of the specimens with water for 30 minutes under vacuum and one hour under pressure. The specimens were removed from the pressure treatment chamber and the residual water was changed after two hours, then daily for the remainder of the leaching period. Afterward, they were trimmed to remove the sealed edges and cut into analytical/soil block test samples. Unleached and leached analytical/soil block samples for each board type were separately randomized. Fifteen were analyzed for borate content and ten were retained for the soil block decay test.
(§3) The soil block test was conducted in accordance with AWPA E10-87, with the exception that soil block dimensions were 1.0″×1.0″×0.5″. The fungi used were Gloeophyllum trabeum (ATCC 11539) for brown rot test and Trametes versicolor (MAD 697) for white rot test. An untreated composite control was run both unleached and leached. Solid southern yellow pine and birch were also run as unleashed controls against G. trabeum and T. versicolor, respectively as a test of fungal vigor.

[2] = test system: Trametes versicolor (MAD 697); experiment: Soil block decay test (AWPA E10-87), white rot; type: cell-based
Text: as §1, §2, §3

[3] = Borate content of composite after two weeks water leaching; type: physicochemical; settings: leached two weeks
Experimental: as §2

[4] = Bulk solids flow testing, J. R. Johanson Indicizer System; type: physicochemical
Text: Bulk solids flow testing was done using the J. R. Johanson Indicizer System, including a Hang-up Indicizer and Hopper Indicizer, manufactured by J R Johanson, Inc. 712 Fiero Lane #37, San Luis Obispo, Calif. 93401. The test procedures are described in detail in their company literature (BULK SOLIDS INDICES TESTING, Hang-up Indicizer™ Instruction Manual ©JR Johanson, Inc. 1991 and BULK SOLIDS INDICES TESTING, Hopper Indicizer™ Instruction Manual ©JR Johanson, Inc. 1991). The results are presented in the following Table 3 as the Arching Index, Ratholing Index, Hopper Index and Chute Index, which are the average of several tests (3-6). The meaning and usefulness of these flow indices in evaluating the flow properties of bulk solids are also described in literature from JR Johanson, Inc., including Binside Scoop™, Vol. 7, No. 2, Fall 1994, Binside Scoop™, Vol. 8, No. 3, Winter 1995, and “Bulk solids Flow Indices—A Simplified Evaluation system”, by Jerry R. Johanson, ©JR Johanson, 1991.
Arching Index—A tendency of a cohesive material is to plug up the opening of a bin by forming an “arch” over the discharge opening. The arching index is given as a multiple of the discharge opening, so less than 1 is necessary for free flow. Numbers greater than 1 reflect a need to enlarge the opening.
Ratholing Index—A tendency of a cohesive material is to hang up on the sides of a bin while an open hole forms in the center and flow ceases. Rathole indices are also given as a multiple of the discharge opening and a number of less than 1 is necessary for free flow. Numbers greater than 1 mean the bins should be redesigned.
Hopper Index—The maximum angle, measured in degrees from the vertical, that is required for the conical portion of a hopper in order to produce reliable mass flow. A larger number is better.
Chute Index—The minimum angle, measured in degrees from horizontal, required for flow down a chute and to prevent material buildup at impact areas. A smaller number is better. Chute indices may often be close to the angle of repose.
Both hopper and chute indices measurements involve friction over a specified surface and measurements are made using substrates of the material of construction. The substrates used for these tests are 304-2B Stainless Steel, aged carbon steel and Tivar UHMWPE (ultra high molecular weight polyethylene) plastic.

[5] = leached two weeks, target loading 0.5% BAE (0.09% B)
[6] = leached two weeks, target loading 1.0% BAE (0.17% B)
[7] = leached two weeks, target loading 2.0% BAE (0.35% B)
[8] = unleached aspen flakeboard, target loading 0.5% BAE (0.09% B)
[9] = unleached aspen flakeboard, target loading 1.0% BAE (0.17% B)
[10] = unleached aspen flakeboard, target loading 2.0% BAE (0.35% B)
[11] = multiple of the discharge opening, less than 1 necessary for free flow, average of 3-6 tests

Nobleite
Mean % Wt. Loss G. trabeum [1, 5]: 5.4% | Mean % Wt. Loss G. trabeum [1, 6]: 1.4% | Mean % Wt. Loss G. trabeum [1, 7]: 1.5% | Mean % Wt. Loss G. trabeum [1, 8]: 1.1% | Mean % Wt. Loss G. trabeum [1, 9]: 1.0% | Mean % Wt. Loss G. trabeum [1, 10]: 1.4% | Mean % Wt. Loss T. versicolor [2, 5]: 27.6% | Mean % Wt. Loss T. versicolor [2, 6]: 11.6% | Mean % Wt. Loss T. versicolor [2, 7]: 10.1% | Mean % Wt. Loss T. versicolor [2, 8]: 5.3% | Mean % Wt. Loss T. versicolor [2, 9]: 3.6% | Mean % Wt. Loss T. versicolor [2, 10]: 2.6% | Assay % B ([3]; target loading 0.5% BAE (0.09% B)): 0.03 % B | Assay % B ([3]; target loading 1.0% BAE (0.17% B)): 0.06 % B | Assay % B ([3]; target loading 2.0% BAE (0.35% B)): 0.09 % B | Hopper Index Stainless Steel ([4]; 304-2B Stainless Steel, maximum angle from the vertical, larger is better): 16 degrees | Chute Index Stainless Steel ([4]; 304-2B Stainless Steel, minimum angle from horizontal, smaller is better): 45 degrees | Hopper Index Plastic ([4]; Tivar UHMWPE plastic, maximum angle from the vertical, larger is better): 17 degrees | Chute Index Plastic ([4]; Tivar UHMWPE plastic, minimum angle from horizontal, smaller is better): 41 degrees | Hopper Index Carbon Steel ([4]; aged carbon steel, maximum angle from the vertical, larger is better): 14 degrees | Chute Index Carbon Steel ([4]; aged carbon steel, minimum angle from horizontal, smaller is better): 47 degrees | Flow properties, summary ([4]; compared with zinc borate, Colemanite F and Colemanite, Glass Grade): superior flow properties | Arching Index [4, 11]: 0.2 | Ratholing Index [4, 11]: 0.5
